{
  "source": "patent US20020165127A1",
  "about": "“Methods for treating insulin resistance and identifying patients at risk for the disease” (SuperGen, Inc., priority 1996, published 2002)",
  "key": {"[1]": {"system": "patient suffering from reactive hypoglycemia", "assay": "Treatment of reactive hypoglycemia", "type": "in vivo, human", "details": "long-acting controlled release formulation; for IGF-2 levels: serum", "procedure": "A patient suffering from reactive hypoglycemia has a serum sample evaluated for IGF-1 and IGF-2 levels. IGF-1 levels are normal but IGF-2 levels are more than two standard deviations below the expected levels for a person of the same age, sex and body weight. The patient is treated by administering IGF-2 or 22K-GH in a long-acting controlled release formulation."}, "IGF-1 and IGF-2": {"system": "IGF-1 and IGF-2", "details": "cited from earlier work"}, "bp3": {"target": "bp3 (Homo sapiens, UniProt P17936)", "sequence (P17936 28-291)": "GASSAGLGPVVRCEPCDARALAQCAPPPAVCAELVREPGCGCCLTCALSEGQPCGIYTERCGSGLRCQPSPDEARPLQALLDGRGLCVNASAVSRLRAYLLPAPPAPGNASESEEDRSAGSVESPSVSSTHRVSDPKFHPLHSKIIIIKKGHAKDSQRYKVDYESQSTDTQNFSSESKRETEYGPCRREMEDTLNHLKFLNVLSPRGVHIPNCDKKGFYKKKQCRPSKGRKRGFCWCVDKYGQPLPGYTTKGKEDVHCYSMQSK", "details": "cited from earlier work"}},
  "data": [
    {"substance": "22K-GH: the larger human growth hormone isoform", "values": [
      {"measurement": "hypoglycemic episodes", "setting": "[1]", "result": "less frequent"},
      {"measurement": "IGF-2 levels", "setting": "[1]", "result": "increased"},
      {"measurement": "effects on the synthesis and secretion of IGFs", "setting": "IGF-1 and IGF-2", "result": "stimulate both IGF-1 and IGF-2"}
    ]},
    {"substance": "IGF-1: IGF polypeptide in serum that binds bp3", "values": [
      {"measurement": "affinity to bp3", "setting": "bp3", "result": "equal affinity"}
    ]},
    {"substance": "IGF-2: IGF polypeptide; competes with insulin for binding to the insulin receptor", "values": [
      {"measurement": "affinity to bp3", "setting": "bp3", "result": "equal affinity"},
      {"measurement": "hypoglycemic episodes", "setting": "[1]", "result": "less frequent"},
      {"measurement": "IGF-2 levels", "setting": "[1]", "result": "increased"}
    ]}
  ]
}
